Source: patent publication US20200405868A1, “GEL-FORMING POLYPEPTIDES” (priority 2018, published 2020)
Where a SMILES comes first, the peptide text is derived from it. Bridges are numbered along the chain shown (N, C = ends). [ ]: non-standard residue; d: D form. The star is where a group is joined. Palmitoyl = CCCCCCCCCCCCCCCC(=O)*; AEEA = NCCOCCOCC(=O)O

How the values were obtained:
[1] = Compound gel-forming ability in water (visual inspection, tube tapping assay, tilted tube assay); assay type: physicochemical;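 further: peptides mixed with de-ionized water at about 22-25 °C, judged after 20 min by eye plus tube tapping (10 taps, moves counted) and 90° tilt mobility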
Method: Determination of Compound Gel-forming Ability in Water: To determine the solubility of polypeptides at room temperature, 1, 2, 3, 4, 5, 20, or 100 mg of a selected peptide is weighed and deposited into a clear plastic or glass vial and an aliquot of de-ionized water was then added to the vial. The procedure takes place in a room which is maintained at approximately 22-25° C. […] Insoluble peptides sample retained the particles or paste-like characteristics after 20 min of reaction. In addition to visual inspection, we performed a tube tapping assay and a tilted tube assay to differentiate the gelling status of peptide solutions.
To determine the solubility of polypeptides at room temperature, 1, 2, 3, 4, 5, 20, or 100 mg of a selected peptide is weighed and deposited into a clear plastic vial and an aliquot of de-ionized water was then added to the vial. The procedure takes place in a room which is maintained at approximately 22-25° C. Polypeptide sample which is considered soluble dissolves instantly in water and stays as a clear solution without obvious macroscopic change in viscosity at 20 min after mixing with water. […] If macroscopic particles of peptides remain in the solution at 20 min after mixing with water, the peptide is considered insoluble or precipitated at the given concentration. In this case, the quality of peptides is further judged by two other criteria: (1) mobility following a tapping of the tube (tube tapping assay) and (2) mobility flowing tilting the tube by 900 (tilted tube assay). In the first assay, the tube is tapped with the finger for 10 times, and the number of times that the body of the solution changes position is recorded. An aqueous solution such as water will have a score of 9 or 10 in this assay; meaning that the body of the liquid moves every time when one taps the tube. […] Those with moderate viscosity form liquid gel that changes the conformation slowly when the container tube is tapped with a finger or tilted. […] If macroscopic change in the position of the body of gel was observed 5-9 time out of 10 separate tapping tests, the gel is considered a liquid gel. The high viscosity of a liquid gel is further confirmed using the tilted tube assay. […] If the liquid or gel body takes more than 15 seconds to flow to the bottom of the tilted tube, the resulting aqueous mass is considered a liquid gel.
To allow systematic analysis of the gel-forming ability, the assay was first conducted at a peptide concentration of 11% w/w in aqueous solution. The peptides analyzed included functional regulators of cell surface receptors, enzymes, complement factors, antimicrobial peptides, immunomodulators, therapeutic peptides, cell-penetrating peptide, antigens, matrikines, and analogs of CGRP, adrenomedullin and adenomedullin 2 (or intermedin).

[2] = molecular target: kappa opioid receptor (OPRK1) (Homo sapiens, UniProt P41145); test: OPRK1 cAMP assay (Discoverx), agonistic; assay type: cell-based
kappa opioid receptor (OPRK1), sequence (P41145 whole entry): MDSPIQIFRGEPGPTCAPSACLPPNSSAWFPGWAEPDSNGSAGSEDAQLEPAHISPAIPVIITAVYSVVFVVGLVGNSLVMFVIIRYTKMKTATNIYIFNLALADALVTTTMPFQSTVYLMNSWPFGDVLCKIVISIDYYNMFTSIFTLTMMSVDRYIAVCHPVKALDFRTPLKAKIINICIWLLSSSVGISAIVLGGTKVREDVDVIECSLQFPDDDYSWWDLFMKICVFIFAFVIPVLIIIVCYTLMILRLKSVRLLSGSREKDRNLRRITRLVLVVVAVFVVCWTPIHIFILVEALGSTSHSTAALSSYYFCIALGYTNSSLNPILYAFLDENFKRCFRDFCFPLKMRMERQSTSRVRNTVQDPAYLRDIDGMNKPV
Method: (§1) The agonistic activities toward MC1R, MC4R, CRHR2, PTHR1, and OPRK1 were assyed with an MC1R cAMP assay, an MC4R cAMP assay, a CRHR2 cAMP assay, a PTHR1 cAMP assay and an OPRK1 cAMP assay from Discoverx Inc. (Fremont, Calif.), respectively. The antagonistic activities toward bradykinin receptor 2 (BDKRB2) and GnRH receptor (GnRHR or LHRHR) were assayed with a BDKRB2 arrestin assay and a GnRHR calcium flux assay from Discoverx, respectively.
(§2) For the analysis of Gs-coupled cAMP production, cAMP Hunter cell lines were expanded from freezer stocks, and cells were seeded in a total volume of 20 μL into white walled, 384-well microplates and incubated at 37 C for the appropriate time prior to testing. The cAMP modulation was determined using the DiscoverX HitHunter cAMP XS+ assay. For agonistic activity determination, cells were incubated with sample to induce response. Media was aspirated from cells and replaced with 15 μL 2:1 HBSS/10 mM Hepes: cAMP XS+ Ab reagent. […] The compound activity was analyzed using a CBIS data analysis suite (ChemInnovation, CA). For Gs-coupled agonistic assays, percentage activity is calculated using the following formula: % Activity=100%×(mean RLU of test sample−mean RLU of vehicle control)/(mean RLU of MAX control−mean RLU of vehicle control).

[3] = molecular target: melanocortin receptor 4 (MC4R) (Homo sapiens, UniProt P32245); test: MC4R cAMP assay (Discoverx), agonistic; assay type: cell-based
melanocortin receptor 4 (MC4R), sequence (P32245 whole entry): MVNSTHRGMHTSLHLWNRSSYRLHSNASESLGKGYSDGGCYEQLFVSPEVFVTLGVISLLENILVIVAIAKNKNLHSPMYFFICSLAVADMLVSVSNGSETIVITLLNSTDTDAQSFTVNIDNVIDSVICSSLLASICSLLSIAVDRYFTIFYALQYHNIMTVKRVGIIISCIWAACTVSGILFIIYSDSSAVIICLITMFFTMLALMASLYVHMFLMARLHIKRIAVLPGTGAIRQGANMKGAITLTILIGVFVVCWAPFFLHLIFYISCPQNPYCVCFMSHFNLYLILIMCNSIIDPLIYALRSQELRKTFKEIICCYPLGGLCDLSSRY
Method: as §1, §2

Row | Compound | gel formation at 3% w/w ([1]; 3% w/w in water) | gel formation at 6% w/w ([1]; 6% w/w in water) | gel formation at 11% w/w ([1]; 11% w/w in water) | gel formation in aqueous solution, 6% ([1]; Table 3, 6% w/w) | gel formation in aqueous solution, 11% ([1]; Table 3, 11% w/w) | propensity to form gels, chimeric or mutated polypeptides, 6% ([1]; Table 5, 6% w/w) | propensity to form gels, chimeric or mutated polypeptides, 11% ([1]; Table 5, 11% w/w) | Max Activity % of positive control [2] | Max Activity % of positive control [3]
1 | CCCCCCCCCCCCCCCC(=O)N[C@@H](CO)C(=O)N[C@@H](CO)C(=O)N1CCC[C@H]1C(=O)N[C@@H](Cc1c[nH]cn1)C(=O)N[C@@H](CO)C(=O)N[C@@H](Cc1ccc(O)cc1)C(=O)NCCOCCOCC(=O)N[C@H](Cc1ccccc1)C(=O)N[C@H](Cc1ccccc1)C(=O)N[C@@H](Cc1c[nH]c2ccccc12)C(=O)N[C@H](CCCNC(=N)N)C(=O)O [SEQ ID NO:214, Pal-SSPHSY-miniPEG-(D-Phe)-(D-Phe)-Trp-(D-Arg)] (Palmitoyl-SSPHSY[AEEA][dF][dF]W[dR]-OH; N-terminus and C-terminus assumed) | liquid gel | semisolid gel | semisolid gel | SS (SS for semisolid gel) | SS (SS for semisolid gel) | SS (An ability to form semisolid gel is represented by an SS) | SS (An ability to form semisolid gel is represented by an SS) | 62 % of positive control | 
2 | CCCCCCCCCCCCCCCC(=O)N[C@@H](Cc1c[nH]cn1)C(=O)N[C@@H](CO)C(=O)N[C@@H](Cc1ccc(O)cc1)C(=O)N[C@@H](CCCNC(=N)N)C(=O)N[C@H]1CSSC[C@@H](C(N)=O)NC(=O)[C@H](Cc2c[nH]c3ccccc23)NC(=O)[C@H](CCCNC(=N)N)NC(=O)[C@@H](Cc2ccccc2)NC(=O)[C@H](Cc2c[nH]cn2)NC(=O)[C@@H](C)NC1=O [SEQ ID NO:228, Pal-HSYRC-(D-Ala)-H-(D-Phe)-RWC-NH2] (Palmitoyl-HSYRC[dA]H[dF]RWC-NH2; disulfide 5-11 (inferred)) |  |  |  |  |  |  |  |  | 115 % of positive control
